“And” between values parts separate entries of the source, which are not always exact repeats. Equal entries are not always repeated.
Target: T1, Tyrosine-protein phosphatase non-receptor type 1 (Homo sapiens, UniProt P18031)
T1 sequence (P18031 whole entry): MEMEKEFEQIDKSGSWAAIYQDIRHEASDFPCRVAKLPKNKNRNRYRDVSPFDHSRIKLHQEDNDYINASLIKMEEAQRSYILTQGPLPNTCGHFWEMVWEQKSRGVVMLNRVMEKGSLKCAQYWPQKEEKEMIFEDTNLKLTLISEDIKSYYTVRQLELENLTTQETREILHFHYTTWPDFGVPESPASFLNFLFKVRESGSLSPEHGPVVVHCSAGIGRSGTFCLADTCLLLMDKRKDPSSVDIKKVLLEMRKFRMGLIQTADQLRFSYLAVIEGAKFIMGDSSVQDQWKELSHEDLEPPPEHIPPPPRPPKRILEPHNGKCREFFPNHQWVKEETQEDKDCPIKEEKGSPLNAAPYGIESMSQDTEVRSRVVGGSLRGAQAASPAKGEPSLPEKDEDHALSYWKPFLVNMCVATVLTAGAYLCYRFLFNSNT
Assay: Non-competitive reversible inhibition of human PTP1B

Structure (SMILES) | IC50
CCc1ccc(-n2nc3c(c(C#N)c2=N)CC(C)(C)OC3)cc1 | 2.8 µM
CC1(C)Cc2c(nn(-c3ccccc3C(F)(F)F)c(=N)c2C#N)CO1 | 3.9 µM
CC1(C)Cc2c(nn(-c3ccccc3N3CCOCC3)c(=N)c2C#N)CO1 | 2.9 µM
N#Cc1c2c(nn(-c3ccc(F)cc3)c1=N)CSCC2 | 2 µM
CCc1cccc(-n2nc3c(c(C#N)c2=N)CC(C)(C)OC3)c1 | 8.2 µM
CC(C)c1ccccc1-n1nc2c(c(C#N)c1=N)CCSC2 | 2 µM
CCCCc1ccc(-n2nc3c(c(C#N)c2=N)CC(C)(C)OC3)cc1 | 7 µM
CC1(C)Cc2c(nn(-c3cccc(Oc4ccccc4)c3)c(=N)c2C#N)CO1 | 3.9 µM
CC1(C)Cc2c(nn(-c3cccc(CO)c3)c(=N)c2C#N)CO1 | 2.4 µM
COc1ccccc1-n1nc2c(c(C#N)c1=N)CC(C)(C)OC2 | 6.19 µM and 6.2 µM
CC(=O)Nc1ccc(-n2nc3c(c(C#N)c2=N)CC(C)(C)OC3)cc1 | 6.1 µM
CC1(C)Cc2c(nn(-c3ccccc3F)c(=N)c2C#N)CO1 | 2.4 µM
CC1(C)Cc2c(nn(-c3ccc(CCO)cc3)c(=N)c2C#N)CO1 | 2.9 µM
CC1(C)Cc2c(nn(-c3cccc(C(F)(F)F)c3)c(=N)c2C#N)CO1 | 2.8 µM
CC(C)c1cccc(-n2nc3c(c(C#N)c2=N)CC(C)(C)OC3)c1 | 8.2 µM
